Assay results taken from patent publication US20240228482A1, “COMPOUNDS, COMPOSITIONS AND METHODS OF TREATING CANCER” (HOTSPOT THERAPEUTICS, INC., priority 2021, published 2024).

target: T1, CBL-B (Homo sapiens, UniProt Q13191); assay: CBL-B TR-FRET IC50 screening (E1/E2 ubiquitination, Biotin-Ubiquitin, Anti GST-Tb donor / Streptavidin-d2 acceptor); type: biochemical; settings: CBL-B 10 nM final; 11-point titration from 100 uM; binned A-F; read-out: CBL-B TR-FRET activity IC50
T1 construct: GST
T1 sequence (Q13191 whole entry): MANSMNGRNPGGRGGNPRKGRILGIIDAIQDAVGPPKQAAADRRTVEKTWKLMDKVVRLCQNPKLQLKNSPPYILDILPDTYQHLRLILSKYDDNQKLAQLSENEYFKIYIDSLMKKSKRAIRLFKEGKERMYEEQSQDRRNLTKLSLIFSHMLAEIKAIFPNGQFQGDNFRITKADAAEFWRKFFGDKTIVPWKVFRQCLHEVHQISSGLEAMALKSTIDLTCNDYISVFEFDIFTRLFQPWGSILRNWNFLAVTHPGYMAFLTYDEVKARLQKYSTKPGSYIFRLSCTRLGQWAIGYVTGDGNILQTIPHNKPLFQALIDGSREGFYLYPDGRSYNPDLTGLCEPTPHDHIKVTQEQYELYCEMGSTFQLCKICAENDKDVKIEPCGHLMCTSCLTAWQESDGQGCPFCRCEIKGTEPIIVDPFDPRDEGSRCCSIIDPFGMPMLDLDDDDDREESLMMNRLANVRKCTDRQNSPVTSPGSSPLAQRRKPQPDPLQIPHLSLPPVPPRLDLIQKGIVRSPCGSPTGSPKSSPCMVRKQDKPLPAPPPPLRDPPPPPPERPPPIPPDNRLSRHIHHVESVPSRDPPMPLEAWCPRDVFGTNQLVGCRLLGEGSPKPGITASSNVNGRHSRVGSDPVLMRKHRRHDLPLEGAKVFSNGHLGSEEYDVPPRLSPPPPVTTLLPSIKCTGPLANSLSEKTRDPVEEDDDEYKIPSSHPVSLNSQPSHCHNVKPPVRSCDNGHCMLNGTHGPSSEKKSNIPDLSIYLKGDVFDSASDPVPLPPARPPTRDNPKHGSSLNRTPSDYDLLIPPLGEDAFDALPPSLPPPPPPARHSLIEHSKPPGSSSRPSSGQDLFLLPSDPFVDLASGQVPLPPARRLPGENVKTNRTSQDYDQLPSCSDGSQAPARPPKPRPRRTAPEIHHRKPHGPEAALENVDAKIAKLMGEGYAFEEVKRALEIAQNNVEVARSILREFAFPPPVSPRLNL

| SMILES | IC50 [µM] |
| --- | --- |
| C[C@H]1CCCN(Cc2cc(C(F)(F)F)c3cn(-c4cc(F)cc([C@H](c5nncn5C)C5CCC5)c4)c(=O)n3c2)C1 (single isomer, unassigned) [Compound 243] | < 0.1 |
| C[C@H]1CCCN([C@@H](c2cc(C(F)(F)F)c3cn(-c4cccc([C@@H](c5nncn5C)C5CCC5)c4)c(=O)n3c2)C(F)(F)F)C1 (single isomer, unassigned) [Compound 256] | > 10 |
| C[C@H]1CCCN([C@H](c2cc(C(F)(F)F)c3cn(-c4cccc([C@@H](c5nncn5C)C5CCC5)c4)c(=O)n3c2)C(F)(F)F)C1 (single isomer, unassigned) [Compound 257] | > 10 |
| CO[C@H]1CCCCN(Cc2cc(C(F)(F)F)c3cn(-c4cccc([C@H](c5nncn5C)C5CCC5)c4)c(=O)n3c2)C1 (single isomer, unassigned) [Compound 261] | < 0.1 |
| CO[C@@H]1CCCCN(Cc2cc(C(F)(F)F)c3cn(-c4cccc([C@H](c5nncn5C)C5CCC5)c4)c(=O)n3c2)C1 (single isomer, unassigned) [Compound 262] | < 0.1 |
| CO[C@H]1CCCN(Cc2cc(C(F)(F)F)c3cn(-c4cccc([C@H](c5nncn5C)C5CCC5)c4)c(=O)n3c2)CC1 (single isomer, unassigned) [Compound 263] | < 0.1 |
| CO[C@@H]1CCCN(Cc2cc(C(F)(F)F)c3cn(-c4cccc([C@H](c5nncn5C)C5CCC5)c4)c(=O)n3c2)CC1 (single isomer, unassigned) [Compound 264] | < 0.1 |
| Cn1cnnc1[C@@H](c1cccc(-n2cc3c(C(F)(F)F)cc(CN4CCC[C@H](C(F)(F)F)C4)cn3c2=O)c1)C1CCC1 (single isomer, unassigned) [Compound 271] | < 0.1 |
| Cn1cnnc1[C@@H](c1cccc(-n2cc3c(C(F)(F)F)cc(CN4CCC[C@@H](C(F)(F)F)C4)cn3c2=O)c1)C1CCC1 (single isomer, unassigned) [Compound 272] | < 0.1 |
| C[C@H]1CCCCN(Cc2cc(C(F)(F)F)c3cn(-c4cccc([C@H](c5nncn5C)C5CCC5)c4)c(=O)n3c2)C1 (single isomer, unassigned) [Compound 273] | < 0.1 |
| C[C@@H]1CCCCN(Cc2cc(C(F)(F)F)c3cn(-c4cccc([C@H](c5nncn5C)C5CCC5)c4)c(=O)n3c2)C1 (single isomer, unassigned) [Compound 274] | < 0.1 |
| Cc1scnc1[C@H](c1cccc(-n2cc3c(C(F)(F)F)cc(CN4CCC[C@H](C)C4)cn3c2=O)c1)C1CCC1 (single isomer, unassigned) [Compound 282] | > 10 |
| Cc1scnc1[C@@H](c1cccc(-n2cc3c(C(F)(F)F)cc(CN4CCC[C@H](C)C4)cn3c2=O)c1)C1CCC1 (single isomer, unassigned) [Compound 283] | > 10 |
| Cn1cnnc1[C@@H](c1cccc(-n2cc3c(C(F)(F)F)cc(CN4CC[C@@H](C(F)(F)F)C4)cn3c2=O)c1)C1CCC1 (single isomer, unassigned) [Compound 285] | 0.1 to 0.3 |
| C[C@H]1CCCN(Cc2cc(C(F)(F)F)c3cn(-c4cc(C#N)cc([C@@H](c5nncn5C)C5CCC5)c4)c(=O)n3c2)C1 (single isomer, unassigned) [Compound 288] | < 0.1 |
| C[C@H]1CCCN(Cc2cc(C(F)(F)F)c3cn(-c4cc(C#N)cc([C@H](c5nncn5C)C5CCC5)c4)c(=O)n3c2)C1 (single isomer, unassigned) [Compound 289] | > 10 |

The remaining lines, values ahead:

| IC50 [µM] | SMILES |
| --- | --- |
| 0.1 to 0.3 | C[C@H]1CCCN(Cc2cc(C(F)(F)F)c3cn(-c4cccc([C@]5(c6nncs6)C[C@@H](C)C5)c4)c(=O)n3c2)C1 (single isomer, unassigned) [Compound 292] |
| 0.1 to 0.3 | C[C@H]1CCCN(Cc2cc(C(F)(F)F)c3cn(-c4cccc([C@]5(c6nncs6)C[C@H](C)C5)c4)c(=O)n3c2)C1 (single isomer, unassigned) [Compound 293] |
| 0.1 to 0.3 | C[C@H]1CCCN(Cc2cc(C(F)(F)F)c3cn(-c4cccc([C@]5(c6nncn6C)C[C@H](O)C5)c4)c(=O)n3c2)C1 (single isomer, unassigned) [Compound 301] |
| 0.301 to 1 | Cc1conc1[C@H](c1cccc(-n2cc3c(C(F)(F)F)cc(CN4CCC[C@H](C)C4)cn3c2=O)c1)C1CCC1 (single isomer, unassigned) [Compound 302] |
| > 10 | Cc1conc1[C@@H](c1cccc(-n2cc3c(C(F)(F)F)cc(CN4CCC[C@H](C)C4)cn3c2=O)c1)C1CCC1 (single isomer, unassigned) [Compound 303] |
| > 10 | C[C@H]1CCCN(Cc2cc(C(F)(F)F)c3cn(-c4cccc([C@@H](c5nccs5)C5CCC5)c4)c(=O)n3c2)C1 (single isomer, unassigned) [Compound 305] |
| > 10 | C[C@H]1CCCN(Cc2cc(C(F)(F)F)c3cn(-c4cccc([C@H](c5nccs5)C5CCC5)c4)c(=O)n3c2)C1 (single isomer, unassigned) [Compound 306] |
| < 0.1 | Cn1cnnc1[C@]1(c2cccc(-n3cc4c(C(F)(F)F)cc(CN5CCc6ncsc6C5)cn4c3=O)c2)C[C@H](C)C1 (single isomer, unassigned) [Compound 308] |
| 0.1 to 0.3 | Cn1cnnc1[C@]1(c2cccc(-n3cc4c(C(F)(F)F)cc(CN5CCc6ncsc6C5)cn4c3=O)c2)C[C@@H](C)C1 (single isomer, unassigned) [Compound 309] |
| < 0.1 | CO[C@H]1C[C@](c2cccc(-n3cc4c(C(F)(F)F)cc(CN5CCC[C@H](C)C5)cn4c3=O)c2)(c2nncn2C)C1 (single isomer, unassigned) [Compound 319] |
| > 10 | COCCn1cc(C)c([C@@H](c2cccc(-n3cc4c(C(F)(F)F)cc(CN5CCC[C@H](C)C5)cn4c3=O)c2)C2CCC2)n1 (single isomer, unassigned) [Compound 335] |
| > 10 | COCCn1cc(C)c([C@H](c2cccc(-n3cc4c(C(F)(F)F)cc(CN5CCC[C@H](C)C5)cn4c3=O)c2)C2CCC2)n1 (single isomer, unassigned) [Compound 336] |
| > 10 | C[C@H]1CCCN(Cc2cc(C(F)(F)F)c3cn(-c4cccc([C@@H](c5nncn5C)C5CC(F)(F)C5)c4)c(=O)n3c2)C1 (single isomer, unassigned) [Compound 342] |
| 0.1 to 0.3 | C[C@H]1CCCN(Cc2cc(C(F)(F)F)c3cn(-c4cccc([C@H](c5nncn5C)C5CC(F)(F)C5)c4)c(=O)n3c2)C1 (single isomer, unassigned) [Compound 343] |
| > 10 | C[C@H]1CCCN(Cc2cc(C(F)(F)F)c3cn(-c4cccc([C@@H](c5nncn5C)[C@H]5C[C@@H](CO)C5)c4)c(=O)n3c2)C1 (single isomer, unassigned) [Compound 353] |
| 0.301 to 1 | C[C@H]1CCCN(Cc2cc(C(F)(F)F)c3cn(-c4cccc([C@H](c5nncn5C)[C@H]5C[C@H](CO)C5)c4)c(=O)n3c2)C1 (single isomer, unassigned) [Compound 354] |
| > 10 | C[C@H]1CCCN(Cc2cc(C(F)(F)F)c3cn(-c4cccc([C@@H](c5nncn5C)[C@H]5C[C@H](CO)C5)c4)c(=O)n3c2)C1 (single isomer, unassigned) [Compound 355] |
| < 0.1 | C[C@H]1CCCN(Cc2cc(C(F)(F)F)c3cn(-c4cccc([C@H](c5nncn5C)[C@H]5C[C@@H](CO)C5)c4)c(=O)n3c2)C1 (single isomer, unassigned) [Compound 356] |
| > 10 | C[C@H]1CCCN(Cc2cc(C(F)(F)F)c3cn(-c4cccc([C@H](c5nncn5C)C5CCOCC5)c4)c(=O)n3c2)C1 (single isomer, unassigned) [Compound 358] |
